{"source": "patent US20190321431A1", "about": "“PREPARATION AND APPLICATION OF Syzygium zeylanicum L. EXTRACT” (Tamkang University, priority 2018, published 2019)", "key": {"[1]": {"target": "T1, Porcine pancreatic alpha-amylase (Sus scrofa, UniProt P00690)", "T1 sequence (P00690 16-511)": "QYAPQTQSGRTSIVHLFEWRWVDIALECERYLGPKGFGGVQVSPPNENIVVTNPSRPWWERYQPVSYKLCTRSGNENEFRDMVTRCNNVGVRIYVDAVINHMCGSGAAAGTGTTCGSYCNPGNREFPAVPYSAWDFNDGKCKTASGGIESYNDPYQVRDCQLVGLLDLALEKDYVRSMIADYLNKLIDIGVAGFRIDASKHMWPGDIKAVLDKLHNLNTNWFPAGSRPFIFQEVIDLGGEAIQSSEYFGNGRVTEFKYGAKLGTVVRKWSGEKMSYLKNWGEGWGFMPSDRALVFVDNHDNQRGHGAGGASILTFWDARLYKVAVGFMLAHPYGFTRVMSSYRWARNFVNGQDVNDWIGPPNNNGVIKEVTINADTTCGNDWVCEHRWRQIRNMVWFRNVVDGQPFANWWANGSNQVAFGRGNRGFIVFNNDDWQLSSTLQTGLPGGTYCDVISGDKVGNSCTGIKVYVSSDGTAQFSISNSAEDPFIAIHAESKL", "assay": "Enzyme activity inhibition test, porcine pancreatic alpha-amylase", "assay_type": "biochemical", "description": "(§1) The test steps of this example are as follows. Firstly, the Syzygium zeylanicum L. extract was mixed a buffer (potassium phosphate buffer) with 1:9 volume to produce a Syzygium zeylanicum L. extract solution. The Syzygium zeylanicum L. extract solution and alpha-glucosidase (enzyme) were mixed into the buffer at a volume ratio of 1:1. In this example, 15 μl extract solution and the enzyme were separately mixed into 100 μl buffer at 37° C. for 20 minutes. Then, 50 μl matrix p-nitrophenyl glucopyranoside (pNPG) was added at 37° C. for 40 minutes; then 100 μl, 1 mol/L of Na2CO3 was added to stop the reaction. Finally, the absorbance of OD 410 nm was measured, and calculated the inhibition activity of alpha-glucosidase. The above experimental steps was the subsequent enzyme activity test method of the present invention, and only different conditions, such as extraction solvent, reaction temperature or pH were changed.\n(§2) The enzyme activity inhibition test of Example 2 was used in this example. […] The enzymes were S. cerevisiae alpha-glucosidase, rat alpha-glucosidase, B. stearothermophilus alpha-glucoside), porcine pancreatic alpha-amylase, B. subtilis alpha-amylase, and human saliva alpha-amylase."}, "[2]": {"target": "S. cerevisiae alpha-glucosidase (Saccharomyces cerevisiae, UniProt P53341)", "sequence (P53341 whole entry)": "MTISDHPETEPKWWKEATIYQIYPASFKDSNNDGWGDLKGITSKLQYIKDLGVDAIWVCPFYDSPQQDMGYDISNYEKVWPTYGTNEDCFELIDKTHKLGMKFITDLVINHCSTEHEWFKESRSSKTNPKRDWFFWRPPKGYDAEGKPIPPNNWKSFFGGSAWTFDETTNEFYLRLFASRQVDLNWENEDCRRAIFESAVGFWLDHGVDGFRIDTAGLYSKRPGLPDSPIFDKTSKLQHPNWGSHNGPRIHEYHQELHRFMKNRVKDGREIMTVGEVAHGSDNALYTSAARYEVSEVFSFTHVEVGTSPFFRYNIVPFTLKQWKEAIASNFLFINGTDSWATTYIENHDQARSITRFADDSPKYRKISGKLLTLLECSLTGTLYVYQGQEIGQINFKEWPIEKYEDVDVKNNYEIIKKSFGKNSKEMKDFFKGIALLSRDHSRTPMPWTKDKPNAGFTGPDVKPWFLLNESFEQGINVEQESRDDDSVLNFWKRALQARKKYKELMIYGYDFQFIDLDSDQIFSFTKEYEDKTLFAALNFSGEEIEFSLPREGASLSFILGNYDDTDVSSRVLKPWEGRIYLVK", "assay_type": "biochemical", "description": "as §1, §2"}}, "data": [{"smiles": "C[C@H]1O[C@H](O[C@H]2[C@H](O)[C@@H](O)[C@@H](O[C@H]3[C@H](O)[C@@H](O)C(O)O[C@@H]3CO)O[C@@H]2CO)[C@H](O)[C@@H](O)[C@@H]1N[C@H]1C=C(CO)[C@@H](O)[C@H](O)[C@H]1O", "note": "(some centres unmarked) [Acarbose]", "values": [{"measurement": "Maximum Inhibitory Activity", "setting": "[1]", "value": "91 ± 2.5", "unit": "%"}, {"measurement": "Maximum Inhibitory Activity", "setting": "[2]", "value": "64 ± 2.3", "unit": "%"}]}]}
